Assay results: ChEMBL document CHEMBL1157938, “Cytotoxicity and inhibition of DNA topoisomerase I of polyhydroxylated triterpenoids and triterpenoid glycosides” (Bioorg Med Chem Lett, 2010)
Active and inactive are the calls of the source. No cut-off for these calls is given here.

What was measured:
[1] = system: A549; assay: Cytotoxicity against human A549 cells at 25 uM after 48 hrs by WST8 assay; type: functional, cell-based
[2] = system: PC-3; assay: Cytotoxicity against human PC3 cells at 25 uM after 48 hrs by WST8 assay; type: functional, cell-based
[3] = system: HL-60; assay: Cytotoxicity against human HL60 cells at 25 uM after 48 hrs by WST8 assay; type: functional, cell-based
[4] = system: PANC-1; assay: Cytotoxicity against human PANC1 cells at 25 uM after 48 hrs by WST8 assay; type: functional, cell-based
[5] = system: MRC5; assay: Cytotoxicity against human MRC5 cells at 25 uM after 48 hrs by WST8 assay; type: cell-based; settings: mrc5, 48 h

SMILES | growth inhibition (GI) [1] | growth inhibition (GI) [2] | growth inhibition (GI) [3] | growth inhibition (GI) [4] | growth inhibition (GI) [5]
CC1(C)C[C@H]2C3=CC[C@@H]4[C@@]5(C)CC[C@H](O[C@@H]6O[C@H](C(=O)O)[C@@H](O)[C@H](O[C@@H]7O[C@@H](CO)[C@H](O)[C@H]7O)[C@H]6O)[C@](C)(CO)[C@@H]5CC[C@@]4(C)[C@]3(C)C[C@@H](O)[C@@]2(CO)[C@@H](O)[C@@H]1O [AESCULIOSIDE IE] | inactive | inactive | inactive | inactive | Not Active
CC1(C)C[C@H]2C3=CC[C@@H]4[C@@]5(C)CC[C@H](O[C@@H]6O[C@H](C(=O)O)[C@@H](O)[C@H](O[C@@H]7O[C@@H](CO)[C@H](O)[C@H]7O)[C@H]6O[C@@H]6O[C@H](CO)[C@@H](O)[C@H](O)[C@H]6O)[C@](C)(CO)[C@@H]5CC[C@@]4(C)[C@]3(C)C[C@@H](O)[C@@]2(CO)[C@@H](O)[C@@H]1O [AESCULIOSIDE ID] | inactive | inactive | inactive | inactive | Not Active
CC1(C)C[C@H]2C3=CC[C@@H]4[C@@]5(C)CC[C@H](O)C(C)(C)[C@@H]5CC[C@@]4(C)[C@]3(C)C[C@@H](O)[C@@]2(CO)[C@@H](O)[C@@H]1O [BARRINGTOGENOL C] | inactive | inactive | inactive | inactive | Not Active
CC1(C)C[C@H]2C3=CC[C@@H]4[C@@]5(C)CC[C@H](O[C@@H]6O[C@H](C(=O)O)[C@@H](O)[C@H](O[C@@H]7O[C@@H](CO)[C@H](O)[C@H]7O)[C@H]6O[C@@H]6O[C@H](CO)[C@H](O)[C@H](O)[C@H]6O)C(C)(C)[C@@H]5CC[C@@]4(C)[C@]3(C)C[C@@H](O)[C@@]2(CO)[C@@H](O)[C@@H]1O [AESCULIOSIDE IC] | inactive | inactive | inactive | inactive | Not Active
